{
  "source": "patent US20130137724A1",
  "about": "“PHARMACEUTICAL COMPOSITIONS COMPRISING 7-(1H-IMIDAZOL-4-YLMETHYL)-5,6,7,8-TETRAHYDRO-QUINOLINE FOR RETINAL NEUROPROTECTION” (ALLERGAN, INC., priority 2011, published 2013)",
  "key": {"[1]": {"molecular_target": "T1, alpha 2A receptor (Homo sapiens, UniProt P08913)", "T1 sequence (P08913 1-465)": "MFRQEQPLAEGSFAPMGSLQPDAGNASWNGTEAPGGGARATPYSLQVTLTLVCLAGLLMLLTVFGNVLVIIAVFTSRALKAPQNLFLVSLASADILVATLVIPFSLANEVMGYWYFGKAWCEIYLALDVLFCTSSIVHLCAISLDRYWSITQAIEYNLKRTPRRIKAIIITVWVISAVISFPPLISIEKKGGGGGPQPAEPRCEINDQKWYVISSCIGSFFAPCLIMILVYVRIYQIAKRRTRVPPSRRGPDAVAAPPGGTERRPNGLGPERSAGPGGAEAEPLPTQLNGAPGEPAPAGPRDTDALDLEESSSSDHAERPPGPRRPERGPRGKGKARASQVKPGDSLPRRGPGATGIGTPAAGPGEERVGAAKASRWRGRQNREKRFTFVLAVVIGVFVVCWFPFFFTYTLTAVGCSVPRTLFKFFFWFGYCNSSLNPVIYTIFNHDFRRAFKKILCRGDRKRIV", "test": "biochemical", "description": "The extent of binding is a measure of receptor activation. […] Membranes were thawed and resuspended using a Polytron disrupter in 4° C. membrane buffer and quantified via Bradford assay. […] The above mixture was then aliquoted, 50 μL/well, in a 96 well plate, combined with an equal volume of test compound dissolved in assay buffer [50 mM Tris-HCl, 100 mM NaCl, 5 mM MgCl2, 1 mM EDTA, and 1 mM DTT, pH 7.4 and 4° C.], and allowed to incubate for 5 minutes. […] Assays were terminated by vacuum filtration over GF/B filters blocked with 0.5% BSA."}, "[2]": {"tested_on": "visual acuity in normal DB rabbits", "test": "Visual enhancement model, spatial sweep visual evoked potential (sVEP) acuity", "assay_type": "in vivo, rabbit", "details": "intravenous route, 10-30 minutes post-dose", "description": "Spatial sweep visual evoked potential (sVEP) acuity. Spatial sVEP acuity was assessed with PowerDiva software version 1.8. Recordings were made bilaterally in conscious animals."}, "[3]": {"tested_on": "blue light induced retinal damage", "test": "Blue light model of retinal degeneration, retinal thickness by OCT", "assay_type": "in vivo, rat", "details": "subcutaneous pump 0.3 and 1 mg/kg/day from two days before exposure, OCT 7 days post blue light, Sprague-Dawley rats", "description": "Twenty 4-month old male Sprague-Dawley rats (body weight 470-550 g) were used in this study. The animals were exposed to room light on a 12 hour light/12 hour dark cycle before the experiment. All animals were dark adapted overnight (16-20 hours) before blue light. Under the intensity of 6100-6500 lux, rats were exposed to blue light for 4 hours. After the blue light, rats were placed in the dark for another 3 days before returning to normal 12 hour light/12 hour dark. Ocular Coherence Tomography (OCT) measurement was performed at 7 days post blue light exposure.\nHistology studies have shown that the reduction in retinal thickness is attributable to loss of photoreceptors."}, "[4]": {"test": "Drug level in the retina with continuous subcutaneous pump dosing", "assay_type": "in vivo, rat", "details": "0.3 mg/kg/day and 1 mg/kg/day, rats"}, "[5]": {"molecular_target": "T2, α2A-adrenergic receptor (Homo sapiens, UniProt P08913)", "T2 sequence (P08913 1-465)": "T1 sequence (P08913 1-465)", "details": "for Percent of Bmax Decrease: 1 μM compound, 24 hours, HEK 293T cells stably transfected with α2A-adrenergic receptor; for down-regulation of alpha2A receptor / receptor density: binding studies, result in words", "experimental": "Human embryonic kidney (HEK) 293T cells stably transfected with the α2A-adrenergic receptor were grown to 50-60% confluency on T-175 culture flasks in DMEM (Gibco, cat. #11995), 10% FBS (Gibco, cat. #16140), 0.25 ug/mL puromycin (Sigma, cat. #P-8833), and 1% antibiotic-antimycotic (Gibco, cat. #15240) maintained at 37° C. and 5% CO2. […] The cells were then washed with room temperature Dulbecco's phosphate buffered saline (DPBS; Gibco, cat. #14190).\nCells were harvested with 4° C. Tris-EDTA buffer [50 mM Tris-HCl, 5 mM EDTA; pH 7.4] and centrifuged at 5,000×g for 5 minutes at 4° C. Membrane preparation was conducted by resuspending the cell pellets in 4° C. Tris-EDTA buffer and lysed with a Polytron disrupter two times (setting 7, 5 seconds each). The lysed suspension was then centrifuged at ˜35,000×g for 32 minutes at 4° C. After decanting the supernatant, the pelleted material was further lysed in 4° C. Tris buffer [50 mM Tris-HCl; pH 8.0] using the Polytron disrupter (setting 4, 5 seconds). Membranes were then aliquoted, pelleted at ˜37,000×g for 32 minutes at 4° C., and stored at −80° C. until use.\nMembranes were thawed and resuspended using a Polytron disrupter in 4° C. HBSS-HEPES buffer [1 part 1M HEPES: 5 parts 10× Hank's Balanced Salt Solution: 43.8 parts H2O; pH 7.4 with KOH] and quantified via Bradford assay. The quantified protein was further diluted with HBSS-HEPES buffer to achieve a 100 μg/mL concentration. Membrane suspension was plated in a 96-well plate at 200 μLs/well ±10 μM phentolamine HCl (Sigma, cat. #P-7547) and [Methyl-^3H] Rauwolscine (15 nM to 0.05 nM; PerkinElmer, cat. #NET722250UC). The assay plate was slowly shaken and incubated at 25° C. for ninety minutes. Immediately following the above incubation, the assays were terminated by vacuum filtration over GF/B filters. Filters were then washed with 4° C. HBSS-HEPES buffer. The incorporated [Methyl-^3H] Rauwolscine was determined using a Microbeta 1450B liquid scintillation counter after the plates had dried overnight."}},
  "data": [
    {"smiles": "c1cnc2c(c1)CC[C@H](Cc1c[nH]cn1)C2", "note": "[(S)-(+)-7-(1H-Imidazol-4-ylmethyl)-5,6,7,8-tetrahydro-quinoline]", "values": [
      {"measurement": "EC50", "setting": "[1]", "result": "< 1", "unit": "nM"},
      {"measurement": "Relative Efficacy", "setting": "[1]; efficacy relative to the full agonist brimonidine", "result": 0.6},
      {"measurement": "visual acuity (sVEP)", "setting": "[2]", "result": "enhances visual acuity"},
      {"measurement": "damage caused by blue light (retinal thickness by OCT)", "setting": "[3]", "result": "significantly reduced the damage caused by blue light"},
      {"measurement": "drug levels in the retina", "setting": "[4]", "result": 1.3, "unit": "ng/g"},
      {"measurement": "Percent of Bmax Decrease", "setting": "[5]", "result": "−25", "unit": "%"},
      {"measurement": "down-regulation of alpha2A receptor / receptor density", "setting": "[5]", "result": "induces very little down-regulation of alpha2A receptor"}
    ]},
    {"smiles": "Brc1c(N=C2NCCN2)ccc2nccnc12", "note": "[Brimonidine, (5-bromo-quinoxalin-6-yl)-imidazolidin-2-ylidene-amine, reference compound]", "values": [
      {"measurement": "Percent of Bmax Decrease", "setting": "[5]", "result": "−45", "unit": "%"},
      {"measurement": "down-regulation of alpha2A receptor / receptor density", "setting": "[5]", "result": "induced a strong reduction in the alpha 2A receptor density"}
    ]}
  ]
}
